Laboratory results as given in patent US20260200884A1, “COMPOUND FOR TREATING GOUT OR HYPERURICEMIA” (Arthrosi Therapeutics, Inc., priority 2019, published 2026).

Columns and labels:
[1] = cited from earlier work
[2] = Solubility of the test article in HBSS assay buffer; format: physicochemical; conditions: all tested concentrations 0.01-10 μM; highest tested concentration 10 μM
Method: Before the experiment, the medium was removed and the cells were washed twice with 100 μL of HBSS without Cl^−. Uptake experiments were carried out at 37±1° C. in 50 μL of HBSS without Cl^−, pH 7.4 containing the probe substrate (20 μM uric acid) and the test article (TA) or solvent.
Results: Compound 1 was soluble in HBSS buffer at all tested concentrations; the highest tested concentration being 10 μM.

| Structure (SMILES) | serum uric acid (sUA) level reached ([1]; chronic therapy, patients) [mg/dL] | hepatotoxicity ([1]; in certain patients) | solubility in HBSS buffer [2] |
| --- | --- | --- | --- |
| CCc1oc2ccccc2c1C(=O)c1cc(Br)c(O)c(Br)c1 [Benzbromarone] | < 6 | associated with hepatotoxicity |  |
| [2H]c1c(O)c([2H])c2oc(C(C)O)c(C(=O)c3cc(Br)c(O)c(Br)c3)c2c1[2H] (stereo not drawn) [Compound 1, (3,5-dibromo-4-hydroxyphenyl)(6-hydroxy-2-(1-hydroxyethyl)benzofuran-3-yl-4,5,7-d3)methanone] |  |  | soluble |
